IC50 data for 8 compounds are collected here from BindingDB's records for doi:10.1021/jm980200+ (St. Cloud State University, 1998).

The nature of this experiment: Inhibitory activity against yeast aldehyde dehydrogenase (AIDH).

As usually defined, the IC50 is the concentration that gives 50% inhibition. Turning to `CC(=O)ON(C(C)=O)S(C)(=O)=O` [N-Acetoxy-N-acetyl-methanesulfonamide], the IC50 was determined as 1000 µM. In turn, `CC(=O)ON(c1ccccc1)S(=O)(=O)c1ccccc1` [N-Acetoxy-N-phenyl-benzenesulfonamide] registered an IC50 of 36 µM. `CON(c1ccccc1)S(=O)(=O)c1ccccc1` [N-Methoxy-N-phenyl-benzenesulfonamide]: the IC50 was over 1000 µM.

Consider `CCOC(=O)ON(c1ccccc1)S(=O)(=O)c1ccccc1` [N-[(ethoxycarbonyl)oxy]-N-phenylbenzenesulfonamide], for which the IC50 amounted to 64.3 µM.

With `COC(=O)ON(c1ccccc1)S(=O)(=O)c1ccccc1` [N-[(methoxycarbonyl)oxy]-N-phenylbenzenesulfonamide], 38.3 µM corresponded to half-maximal inhibition (IC50). With `O=Nc1ccccc1` [NOB] the figure was 2.5 µM. As to `CCOC(=O)ON(C(=O)OCC)S(C)(=O)=O` [ethyl (ethoxycarbonyl)oxy(methylsulfonyl)carbamate], 35.6 µM corresponded to half-maximal inhibition (IC50).

As to `COC(=O)ON(C(=O)OC)S(C)(=O)=O` [methyl (methoxycarbonyl)oxy(methylsulfonyl)carbamate], the IC50 was 20.9 µM.
